Assay results as given in the supplement of paper PMC10307832.

Experiments:
Assay in all cases: relative viability (nuclei count vs DMSO), 5 days (fraction); higher = more cells survive
[1] = compound: CN1CCN(CC1)C2=CC(=C(C=C2)NC3=NC=C4C(=N3)N(C5=CC=CC=C5C(=O)N4C)C)OC [XMD8-85] + Cc1cc(Nc2cc(N3CCN(C)CC3)nc(Sc3ccc(NC(=O)C4CC4)cc3)n2)n[nH]1 [Tozasertib] (partner 0.1 µM)
Method in brief: (§1)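 Nuclei were stained with Hoechst during a one-step fixation (final 0.05% Triton X-100, 1% formaldehyde, 1 ug/ml Hoechst) carried out 5 days after dosing, then counted on 4× images. The cells, lung cancer lines in 1536-well plates, had been dosed by pin tool the day after seeding with one drug alone or a fixed anchor-drug dose plus five library-drug doses (not always all listed) in √10 steps. Relative viability is the nuclei count in treated wells divided by that in vehicle wells, and each value is the median of duplicate plates.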

[2] = compound: CN1CCN(CC1)C2=CC(=C(C=C2)NC3=NC=C4C(=N3)N(C5=CC=CC=C5C(=O)N4C)C)OC [XMD8-85] + N=C(N)NC(=N)NCCc1ccccc1 [Phenformin] (partner 250 µM)
Method in brief: as §1

[3] = compound: O=C(O)C(Cc1ccccc1[N+](=O)[O-])=NNc1nc(-c2ccc(Cl)c(Cl)c2)cs1 (mixture of isomers) [4EGI-1] + CS(=O)(=O)CCNCc1ccc(-c2ccc3ncnc(Nc4ccc(OCc5cccc(F)c5)c(Cl)c4)c3c2)o1 [Lapatinib] (partner 2 µM)
Method in brief: as §1

[4] = compound: O=C(O)C(Cc1ccccc1[N+](=O)[O-])=NNc1nc(-c2ccc(Cl)c(Cl)c2)cs1 (mixture of isomers) [4EGI-1] + CC(C)C[C@H](NC(=O)[C@H](Cc1ccccc1)NC(=O)c1cnccn1)B(O)O [Bortezomib] (partner 0.002 µM)
Method in brief: as §1

Cell Line	relative viability ([1]; first compound 0.08 µM)	relative viability ([1]; first compound 0.253 µM)	relative viability ([1]; first compound 0.8 µM)	relative viability ([1]; first compound 2.53 µM)	relative viability ([1]; first compound 8 µM)	relative viability ([2]; first compound 0.08 µM)	relative viability ([2]; first compound 0.253 µM)	relative viability ([2]; first compound 0.8 µM)	relative viability ([2]; first compound 2.53 µM)	relative viability ([2]; first compound 8 µM)	relative viability ([3]; first compound 0.5 µM)	relative viability ([3]; first compound 5 µM)	relative viability ([3]; first compound 15.81 µM)	relative viability ([3]; first compound 50 µM)	relative viability ([4]; first compound 0.5 µM)	relative viability ([4]; first compound 1.581 µM)	relative viability ([4]; first compound 5 µM)	relative viability ([4]; first compound 15.81 µM)	relative viability ([4]; first compound 50 µM)	relative viability ([3]; first compound 1.581 µM)
NCI-H1395	0.768	0.786	0.716	0.693	0.571	0.483	0.421	0.447	0.414	0.409	0.975	1.18	0.832	0.413	–	–	–	–	–	–
IA-LM	–	–	–	–	–	–	–	–	–	–	0.886	0.581	0.109	0.0728	0.873	0.707	0.552	0.144	0.0723	0.589
NCI-H2170	0.681	0.671	0.731	0.639	0.456	0.4	0.431	0.447	0.41	0.366	0.32	0.289	0.264	0.235	–	–	–	–	–	0.266
NCI-H1623	0.495	0.336	0.41	0.421	0.367	0.611	0.584	0.578	0.555	–	–	–	–	–	–	–	–	–	–	–
NCI-H1944	0.27	0.277	0.264	0.256	0.21	0.186	0.195	0.228	0.207	0.151	0.816	0.776	0.745	0.456	–	–	–	–	–	–
LK-2	–	0.156	0.188	0.158	0.181	–	0.279	0.377	0.374	0.213	1.04	0.978	0.984	0.745	–	–	–	–	–	–
SK-MES-1	0.998	0.939	–	0.81	0.276	0.699	0.624	0.645	0.643	0.427	0.51	0.479	0.459	0.395	–	–	–	–	–	0.419
NCI-H441	0.758	0.601	0.657	0.768	0.408	0.954	0.689	0.81	1.12	0.571	–	–	–	–	0.634	0.517	0.659	0.492	0.441	–
NCI-H522	0.557	0.562	0.41	0.519	0.467	0.664	0.697	0.338	0.367	0.67	–	–	–	–	–	–	–	–	–	–
ChaGo-K-1	0.225	0.233	0.207	0.196	0.144	0.421	0.533	0.493	0.512	–	–	–	–	–	0.995	–	0.954	0.659	0.434	–
